# According to patent US11352315B2, “Compositions and methods comprising a triaryl polyamine” (Curza Global, LLC, priority 2017, dated 2022):
# Key:
# A. baumannii [1] = assay: EBEC analysis, high number biofilms on PEEK membranes; type: cell-based, Acinetobacter baumannii; conditions: 24 hours
# Procedure: (§1) To determine the efficacy of polyamine compounds against high number biofilms, biofilms were grown on the surface of polyetheretherketone (PEEK) membranes using a membrane biofilm reactor. This reactor was similar to the CDC biofilm reactor, but rather than growing biofilms on coupon surfaces, the reactor was modified to hold PEEK membranes. In short, to grow biofilms within this system, 500 mL of brain heart infusion (BHI) broth were inoculated with 1 mL of a 0.5 McFarland. The reactor was placed on a hot plate set at 34° C. and the bacteria were grown under batch conditions for 24 hours.
# (§2) A solution of 10% BHI was then flowed through the reactor at a rate of 6.94 mL/min for an additional 24 hours. PEEK membranes were then removed and placed into 2 mL of CAMHB that contained a desired concentration of polyamine compound or antibiotic. The EBEC was defined as the concentration of antimicrobial required to reduce a biofilm from approximately 10^9 CFU/PEEK membrane to approximately 10^2 CFU/PEEK membrane in a 24-hour period.
# A. baumannii [2] = assay: MIC analysis; type: cell-based; conditions: Acinetobacter baumannii, 24 hours
# Procedure: (§3) To determine the MIC of polyamine compounds, the protocol described herein was used.
# (§4) In brief, a 0.5 McFarland of each bacterial isolate was made. A 0.5 McFarland is a measure of turbidity in a liquid sample that contains approximately 1×10^^8 CFU/mL. The 0.5 McFarland standard was diluted in cation adjusted Mueller Hinton Broth (CAMHB), and 50 μL of broth were added to a well of a 96-well plate. In addition, 50 μL of CAMHB that contained a desired concentration of antimicrobial were also added to the well for a final volume of 100 μL and a final concentration of approximately 5×10^4 CFU/well (which equated to approximately 5×10^5 CFU/mL). Each well contained a desired amount of polyamine compound in order to experimentally determine the MIC. Each 96-well plate was incubated at 37° C. for 24 hours. The contents of each well were plated on tryptic soy agar (TSA). TSA plates were incubated for 37° C. for 24 hours after which the number of CFU were counted and used to calculate the CFU/mL that remained after exposure to varying concentrations of compound. This procedure was repeated n=8 times for each concentration of antimicrobial.
# P. aeruginosa [3] = assay: EBEC analysis, high number biofilms on PEEK membranes; type: cell-based, Pseudomonas aeruginosa; conditions: 24 hours
# Procedure: as §1, §2
# MRSA [4] = assay: as above; type: cell-based, Staphylococcus aureus; conditions: 24 hours
# Procedure: as §1, §2
# MRSA [5] = assay: MIC analysis; type: cell-based; conditions: Staphylococcus aureus, 24 hours
# Procedure: (§5) A clinical strain of MRSA, isolated from a patient who underwent arthroscopic knee surgery and characterized by ARUP Laboratories, Salt Lake City, Utah, was used for this study in addition to Pseudomonas aeruginosa ATCC 27853 and Alcanivorax borkumensis ATCC 700651. P. aeruginosa was resuspended in BHI broth, grown overnight at 37° C. and transferred to fresh BHI with 30% glycerol for storage at −80° C. The MRSA isolate was likewise stored in BHI with 30% glycerol at −80° C. […] Before performing MIC analysis and biofilm experiments, the frozen stocks of MRSA and P. aeruginosa were streaked onto Columbia blood agar plates and grown overnight at 37° C. A. borkumensis ATCC 700651 was resuspended from a lyophilized pellet into marine broth, grown overnight at 30° C. and passaged on marine agar plates prior to experimentation.
# as §3, §4
# P. aeruginosa [6] = assay: MIC analysis; type: cell-based; conditions: Pseudomonas aeruginosa, 24 hours
# Procedure: as §5, §3, §4
# [7] = system: A. baumannii ATCC BAA 1605; assay: MIC testing against the planktonic phenotype (Example 5); type: cell-based; conditions: Acinetobacter baumannii, BAA1605, 24 hr at 37° C.
# Procedure: (§8) The isolate was maintained on Columbia blood agar and passaged as necessary with overnight incubation at 37° C.
# Minimum inhibitory concentration (MIC) testing against the planktonic phenotype was performed first. To do so, a modified protocol of the Clinical and Laboratory Standards Institute (CLSI) guideline M100 was used. In short, using a fresh overnight culture of bacteria, a 0.5 McFarland standard was made in PBS using a nephelometer, then diluted to achieve a concentration of ˜7.5×10^5 CFU/mL. A 96-well plate was set up such that a final volume of 100 μL was present in each well. Column 1 served as the negative control of growth (antibiotic only without bacteria added) and Column 11 served as the positive control of growth (bacteria only, no antibiotic).
# Into columns 2-11, 50 μL of CAMHB were added to each well. […] The solution was mixed, then 50 μL were removed and added to wells of column 3. This 1:2 dilution process was continued through column 10. Lastly, into each well of columns 2-11, 50 μL of the prepared bacterial solution were added. […] The 96-well plate was covered with adhesive film and incubated 24 hr at 37° C. The concentration of antibiotic that inhibited pellet formation or turbidity was considered the MIC.
# MRSA [8] = assay: MBEC analysis, MBEC Inoculation Tray (column headed MBC); type: cell-based; conditions: Staphylococcus aureus, 24 hours
# Text: (§6) To determine the MBEC of each polyamine compound, the MBEC Inoculation Tray by Innovotech, formerly known as the Calgary biofilm device, was used. Within this device, biofilms grow on the surface of polystyrene pegs, 96 of which are attached to a lid. These pegs are inserted into a flat bottom 96-well plate. In this instance, the MBEC of a molecule was defined as the concentration of compound (in μg/mL) required to reduce 10^5 or 10^6 CFU/peg (biofilm levels varied by isolate) to 10^2 CFU/peg in a 24-hour period.
# (§7) Following the manufacturer's guidelines, biofilms were grown on the surface of each peg by first making a 0.5 McFarland of each isolate. The 0.5 McFarland was diluted 1:100 in CAMHB. Into each well of a flat bottom 96-well plate, 150 μL of broth were pipetted. The plate was shaken at 100 rpm for 24 hours (P. aeruginosa and A. baumannii) or 48 hours (MRSA). The pegs were then placed into a separate flat bottom 96-well plate for 10 seconds with 200 μL of phosphate buffered saline (PBS) in each well to remove nonadherent cells. The lid was then placed into a 96-well plate that contained varying concentrations of antimicrobial with 200 μL per well. The plate was incubated for 24 hours at 37° C. after which time 100 μL of broth were plated on TSA. TSA plates were incubated 24 hours at 37° C. and the number of CFU counted to calculate the CFU/peg. In this instance, the MBEC was defined as the concentration of antimicrobial required to reduce 10^5 or 10^6 CFU/peg to 10^2 CFU/peg in a 24 hour period.
# A. baumannii [9] = assay: as above; type: cell-based; conditions: Acinetobacter baumannii, 24 hours
# Text: as §6, §7
# P. aeruginosa [10] = assay: as above; type: cell-based; conditions: Pseudomonas aeruginosa, 24 hours
# Text: as §6, §7
# A. baumannii [11] = assay: In vivo efficacy, porcine excision wound model (Example 6); design: species or system Acinetobacter baumannii; conditions: for Last Day that A. baumannii was Detected in At Least One Wound by Culture Swab / Log10 Transformed CFU/g Tissue at Necropsy (Day 28) / Last Day that A. baumannii was Detected in At Least One Wound: pig
# Text: Four Yorkeshire pigs with weight in the range of approximately 40-50 kg were quarantined for a minimum of 7 days. Positive reinforcement (Swedish Fish®, marshmallows, Snickers® bars, fruit and/or other treats) was provided once daily to help the pigs become accustom to having their back manipulated—e.g., a back scratch with a soft brush—by a research team member. A custom-fit jacket was also placed on pigs during the acclimation period to allow them to become aware of the covering that would be on their body.
# The night before a surgical procedure was to be performed, pigs were fasted. To perform surgery, pigs were anesthetized initially with a combination of tiletamine-zolazepam (Telazol®; 4.4 mg/kg), Ketamine (2.2 mg/kg) and Xylazine (2.2 mg/kg). Pigs were intubated, given isoflurane inhalant at 0.5-5.0%, transported to a surgical suite, placed in sternal recumbency and clipped/razor-shaved of hair in the region where excision wounds would be created. Pigs were rotated to dorsal recumbency and the jugular vein area was sterilely prepped using alternating betadine/isopropyl alcohol. Once prepped, the site was sterilely draped and a VAP was implanted. To do so, a ventral midline incision was made to isolate the jugular vein. A catheter was placed in the vein and secured. A second incision was made on the dorsal side of the neck and a tunnel created along the subcutaneous space from the second incision to the jugular vein. The catheter was passed through the tunnel. A VAP was anchored subdermally in the dorsal neck space with non-absorbable suture (e.g., Proline). The catheter was connected to the VAP and secured in the jugular vein. Both incision sites were closed using absorbable suture (e.g., Vicryl).
# With a VAP in place, a pig was rotated to sternal recumbency. The back was sterilely prepped for surgery, then draped. Using a 1 cm biopsy punch, excision wounds were created with a separation of approximately 2 cm between each wound. Wounds were organized into three or four sections with n=8 wounds/section (see FIG. 5). To reduce bleeding during wound creation, wound beds were treated with μL quantities of dilute epinephrine (1 mg/mL) as needed by the surgeon. Sterile saline-soaked gauze sponges were placed on excised wounds to maintain moisture as additional wounds were created. Once created, wounds were inoculated with bacteria (with the exception of negative control wounds) in either the planktonic or biofilm phenotype (see FIG. 5).
# For wounds inoculated with planktonic bacteria, 2-3 colonies from a fresh overnight culture of A. baumannii were adjusted to a turbidity of 10% (˜1×10^9 CFU/mL) in sterile PBS using a nephelometer. One hundred L were pipetted into wound beds on the left flank of an animal (see FIG. 5).
# Biofilm inoculation was performed by first growing biofilms on absorbable collagen for a total of 192 hrs (8 days) as described and transported to the OR in approved containers. Once the excision wounds were created, biofilm-containing collagen coupons were aseptically placed into wounds (one coupon/wound) on the right flank of an animal (see FIG. 1). […] Following inoculation, tincture of benzoin was applied to the border of each wound section to help maintain bandage adherence. Wounds were bandaged with a non-stick Telfa pad and Tegaderm. A custom jacket was also placed to further protect bandaging. Pigs were recovered and allowed to eat and drink ad libitum.
# All wounds were reinoculated with planktonic or biofilm bacteria once daily for 3 days following the surgical procedure (total of 4 inoculations). […] To perform the reinoculations, planktonic bacteria were made fresh each day.
# A. baumannii [12] = assay: Wound healing study, porcine excision wound model (Example 3); type: in vivo, Acinetobacter baumannii; conditions: for CFU/g Tissue: necropsy at 28 days
# Procedure: An IACUC-approved in vivo analysis utilized an excision wound model in swine. Up to 32 partial thickness wounds were created/animal using a 1 cm biopsy punch (FIG. 1A). Wounds were inoculated with ^˜1×10^8 colony forming units (CFU) of A. baumannii in the planktonic or biofilm phenotype. Well-established biofilms were grown on the surface of bio-absorbable collagen in a modified CDC biofilm reactor for 8 days (FIG. 1B). An n=8 wounds were used for each treatment group.
# For the treatment groups, infection was allowed to establish in each wound for 5 days after which time treatment with an antimicrobial began. […] In a separate pig, wounds were inoculated as above and a combination of colistin/imipenem (2.5 mg/each) was administered IV for 14 days for comparison to the current clinical standard of care for A. baumannii. […] Swine were monitored for 28 days. Wound size was measured daily. Culture swabs were collected regularly. At the time of necropsy, a 5 mm biopsy punch was used to collect tissue and calculate CFU/g using standard microbiological procedure. ANOVA analysis was used to compare differences in data with alpha 0.05.
# [13] = system: A. baumannii ATCC BAA 1605 biofilms; assay: Biofilm efficacy in CAMHB broth, CDC biofilm reactor (Example 5); type: cell-based, Acinetobacter baumannii; conditions: 24 hr
# Procedure: as §8
# Biofilms were grown on polycarbonate coupons in a CDC biofilm reactor following the manufacturer's recommendation. Once assembled and autoclaved, the reactor was inoculated. To do so, a fresh overnight culture of A. baumannii was used to make a 0.5 McFarland standard of the bacterial isolate (˜5×10^7 CFU/mL). One mL of the 0.5 McFarland solution was inoculated into 500 mL of BHI in the CDC biofilm reactor. The reactor was placed on a hot plate set at 34° C. and a baffle rotation of 130 rpm for 24 hr. After 24 hr batch growth, a continuous flow of 10% BHI was flowed through the reactor at ˜6.9 mL/min for an additional 168 hr (7 days).
# A 100 μL aliquot of broth was removed and plated using a 10-fold dilution series in order to quantify the CFU/coupon that remained. Testing was performed with n=3 repeats per concentration. A baseline of growth was determined by quantifying n=3 coupons/reactor immediately following growth.
# [14] = debrided wounds, biofilm phenotype
# [15] = debrided wounds, planktonic phenotype
# [16] = undebrided wounds, biofilm phenotype
# [17] = undebrided wounds, planktonic phenotype
smiles,measurement,setting,value
"CC(C)CCNCCCNCCCNCc1cccc(-c2cc(-c3cccc(CNCCCNCCCNCCC(C)C)c3)cc(C(C)(C)C)c2)c1 [CZ-1-182, N^1,N^1′-((5′-(tert-butyl)-[1,1′:3′,1″-terphenyl]-3,3″-diyl)bis(methylene))bis(N^3-(3-(isopentylamino)propyl)propane-1,3-diamine)]",EBEC,A. baumannii [1],300 µg/mL
same,MIC,A. baumannii [2],32 µg/mL
same,EBEC,P. aeruginosa [3],150 µg/mL
same,EBEC,MRSA [4],100 µg/mL
same,MIC,MRSA [5],0.25 µg/mL
same,MIC,P. aeruginosa [6],4 µg/mL
"CCC(CC)CNCCCNCCCNCc1ccc(-c2cc(-c3ccc(CNCCCNCCCNCC(CC)CC)cc3)cc(C(C)(C)C)c2)cc1 [CZ-1-179, N^1,N^1′-((5′-(tert-butyl)-[1,1′:3′,1″-terphenyl]-4,4″-diyl)bis(methylene))bis(N^3-(3-((2-ethylbutyl)amino)propyl)propane-1,3-diamine)]",MIC,[7],2 µg/mL
same,EBEC,A. baumannii [1],500 µg/mL
same,MIC,A. baumannii [2],2 µg/mL
same,MBC,MRSA [8],1 µg/mL
same,MBC,A. baumannii [9],4 µg/mL
same,MBC,P. aeruginosa [10],4 µg/mL
same,Day after which A. baumannii was no longer detected by culture,A. baumannii [11]; Pig 2 (topical agents only),6 days
same,A. baumannii by culture on Day 6,A. baumannii [11]; Pig 4 (IV+topical products),none of the wounds
same,Day on which healing was obvious,A. baumannii [11]; Pig 4 (IV+topical products),≤ 8 days
same,Day on which signs of infection resolved,A. baumannii [11]; Pig 4 (IV+topical products),≤ 6 days
same,Day on which wound contraction was notable,"A. baumannii [11]; Pig 4 (IV+topical products), biofilm wounds",≤ 7 days
same,Day on which wound contraction was notable,"A. baumannii [11]; Pig 4 (IV+topical products), planktonic wounds",≤ 7 days
same,reduction of bioburden,"A. baumannii [11]; Pig 4, in combination with IV antibiotics",reduced completely within two weeks
same,days sooner signs of infection cleared than the host alone,A. baumannii [11]; pig wounds,3 to 4 days
same,Last Day that A. baumannii was Detected in At Least One Wound by Culture Swab,A. baumannii [11]; [14],5
same,Log10 Transformed CFU/g Tissue at Necropsy (Day 28),A. baumannii [11]; [14],0
same,Last Day that A. baumannii was Detected in At Least One Wound by Culture Swab,A. baumannii [11]; [15],5
same,Log10 Transformed CFU/g Tissue at Necropsy (Day 28),A. baumannii [11]; [15],0
same,Last Day that A. baumannii was Detected in At Least One Wound,A. baumannii [11]; [16],5
same,Log10 Transformed CFU/g Tissue at Necropsy (Day 28),A. baumannii [11]; [16],0
same,Last Day that A. baumannii was Detected in At Least One Wound,A. baumannii [11]; [17],5
same,Log10 Transformed CFU/g Tissue at Necropsy (Day 28),A. baumannii [11]; [17],0
same,CFU/g Tissue,A. baumannii [12]; swine wounds inoculated with biofilm bacteria,0.00 CFU/g Tissue
same,CFU/g Tissue,A. baumannii [12]; swine wounds inoculated with planktonic bacteria,0.00 CFU/g Tissue
same,speed of eradication of A. baumannii,"A. baumannii [12]; swine wounds, topical",faster than SSD
same,EBEC,MRSA [4],250 µg/mL
same,CFU/coupon remaining,[13]; 0.00125% (12.5 μg/mL),~9.2×10^5 CFU/coupon
same,log10 reduction of biofilm,[13]; 0.00125% (12.5 μg/mL),~2 log10
same,CFU/coupon remaining,[13]; […] (25 μg/mL),~4.8×10^3 CFU/coupon
same,log10 reduction of biofilm,[13]; […] (25 μg/mL),~4 log10
same,eradication of biofilms,"[13]; concentrations from 2% (20 mg/mL) down to 0.005% (50 μg/mL), polycarbonate coupons",full eradication of biofilms
same,MIC,MRSA [5],0.5 µg/mL
same,MIC,P. aeruginosa [6],4 µg/mL
